Data published in publication PMC9021288 (Nature Communications, 2022).
Like-named read-outs stand apart in the source and are kept apart here.

Assays:
[1] = rat
[2] = human
[3] = mouse

For C[C@@H](CNC(=O)[C@H](O)C(C)(C)CO)NC(=O)c1cc(F)c(F)cc1F [MMV693183-08], the “Blood to Plasma ratio Avg(n=2)” value [1] was 0.91, the “Blood to Plasma ratio Avg(n=2)” value [2] was 0.97 and the “Blood to Plasma ratio Avg(n=2)” value [3] was 0.98.
